According to a melting point compilation (Tetko et al.; mined from patent text by program, amines drawn as free bases though some values may be those of a salt):

Structure (SMILES) | melting point
COc1ccc(C2=NN(CCCCN3C(=O)c4ccccc4C3=O)C(=O)[C@H]3CC=CC[C@@H]23)cc1OC (relative stereo) | 139 to 140 °C
COc1ccc(/C=C/c2cnccn2)cc1OC1CCCC1 | 81 to 83 °C
CCCn1c(=S)c2[nH]c(C(C)C)nc2n(CCC)c1=O | 133 to 134 °C
CCCCCCCCCCCCCCCCSCC(CN=[N+]=[N-])NC(=O)OC(C)(C)C (stereo unspecified) | 63 to 64 °C
O=C(O)c1cn(C2CC2)c2c(F)c(N3CCC(n4cnnn4)C3)c(F)cc2c1=O (stereo unspecified) | 268 to 270 °C
Cc1cc(Br)c(C=O)c2ccccc12 | 93 °C
c1cc(C2=NOCCS2)ccn1 | 80 to 82 °C
Cn1c(C(F)(F)F)ccc(-c2cc(C#N)c(Cl)cc2F)c1=O | 180 to 181 °C
N#Cc1c(N2CCN(C(=O)c3ccco3)CC2)c2cc(F)ccc2n(Cc2ccccc2)c1=O | 209 °C
Cc1[nH]cnc1C=CC(=O)c1cn2c3c(cccc13)CCC2 | 108 to 110 °C
O=C(Nc1nccs1)C1=C(O)c2ccsc2S(=O)(=O)C1 | 215 to 216 °C
COC(=O)c1ncn2c1C(C)N=C(c1ccccc1F)c1cc(Cl)ccc1-2 (stereo unspecified) | 190 to 191 °C
CS(=O)c1ccc(C#N)cc1 (stereo unspecified) | 87 to 90 °C
CCCCOc1c(CNC(=O)OC(C)(C)C)n(CC(C)C)c(=O)c2ccc(-c3ccccc3)cc12 | 155 to 159 °C
O=C(c1ccccc1)c1cc(Cl)ccc1-n1ccnc1 | 106 to 108 °C
CCOC(=O)c1cc(C(=O)CBr)[nH]n1 | 174 to 176 °C
CCC(=O)Oc1cc2c(s1)CCN(C(C(=O)C1CC1)c1ccccc1F)C2 (stereo unspecified) | 101 to 102 °C
COC(=O)c1ccccc1C(=O)c1ccc(O)cc1 | 147 to 149 °C
CCOc1nn(-c2ccccn2)cc1CCCOc1cccc(CC(=O)O)c1 | 66 to 67 °C
COc1ccc(-c2[nH]c3ccc(OCc4ccccc4)cc3c2C)cc1 | 158 °C
CCC(=O)Nc1nc2ccc(Cl)cc2nc1N | 300 to 302 °C
CC(=O)c1ccc(NC(=O)NCCCN(CCCNC(=O)Nc2ccc(C(C)=O)cc2)CCCNC(=O)Nc2ccc(C(C)=O)cc2)cc1 | 184 to 185 °C
CN(C)c1cc2nc(C(C)(C)C)sc2cc1N | 169 °C
Cc1nc2c(c(=O)[nH]1)-c1ccc(Cl)cc1C(c1ccccc1)=[N+]([O-])C2 | 219 to 221 °C
CC(=O)N1CCc2c(c3ccc(-n4ccc(OCc5ccc(F)cn5)cc4=O)cc3n2C)C1 | 220 to 224 °C
CCOC(=O)/C=C/C=C/c1cccc(-c2c(CC(=O)Nc3ccc(F)cc3C(F)(F)F)c(=O)oc3cc(Cl)c(C)cc23)c1 | 216 to 218 °C
Cc1cc2c(s1)Nc1ccccc1N=C2N1CCN(C)CC1 | 190 to 193 °C

Structure (SMILES) | melting point
O=C1C(c2ccccc2)c2cccc3c2N1CCN3 (stereo unspecified) | 168 to 171 °C
N=C(N)c1ccc2cc(OC(=O)CCCCCNC(=O)OCc3ccccc3)ccc2c1 | 119 to 122 °C
Cn1nc(-c2ccccc2)c(CNc2ccccc2C(=O)O)c1Cl | 192 to 193 °C
C#CCOc1nsc(-c2ccccc2)n1 | 66.9 °C
CC(C)N(C[C@H](O)[C@H](Cc1ccccc1)NC(=O)OCc1ccccc1)NC(=O)OC(C)(C)C | 114 to 115 °C
O=Cc1cc2ccc3c4ccccc4ccc3c2s1 | 209 to 210 °C
COc1ccc(N2C(=O)C(C)N(c3ccc(Cc4ccccc4)cc3)C2=S)cc1 (stereo unspecified) | 122 °C
Cc1ccccc1OCC(O)CNCCCOc1ccccc1 (stereo unspecified) | 73 to 74 °C
COc1ccc2c(c1)NC(=O)C(CCO)O2 (stereo unspecified) | 111 to 113 °C
CCOC(=O)c1sc(CBr)nc1C | 48 to 58 °C
COc1cc(CC(=O)O)n(C)c1C(=O)c1ccc(Cl)cc1 | 142 °C
CN(C)C(=O)Oc1ccc(CO)cc1 | 76 °C
COc1ccc(CNc2ncccc2C(=O)Nc2cccc(C(F)(F)F)c2)cn1 | 185 °C
CNc1nc(Cl)nc2c1ncn2C1SC(CO)C(O)C1O (stereo unspecified) | 220 to 222 °C
Cc1sc(-c2ccccc2)nc1COc1cc(COc2ncccc2C=O)on1 | 123 to 124 °C
CCOCc1nc2c(N)nc3cc(Br)cnc3c2n1CC(C)C | 163 to 164 °C
CC(=O)N1CCC2(CC1)C(=O)NC(=O)N2c1ccc(C)cc1 | 295 to 297 °C
O=C(O)CCC/C=C\CN1C(=O)c2ccccc2C1=O | 86 to 88 °C
O=S1(=O)NC(C2CCCCC2)Nc2ccc(-c3cccc(O)c3)cc21 (stereo unspecified) | 238 to 246 °C
O=[N+]([O-])c1ccc(-c2nn(-c3ccccn3)cc2C=NO)o1 | 234 to 235 °C
O=C(O)Cc1ccc(OCc2cc(Cl)ccc2C(=O)O)cc1 | 197 to 201 °C
CC(C)c1cc(C(=O)Nc2ccc(C(=O)O)c(Cl)c2)oc1C(C)C | 152 to 153 °C
COc1c2c(cc3ccc(=O)oc13)CC(OC)O2 (stereo unspecified) | 131 to 132 °C
Cc1cc(-c2cc(COS(C)(=O)=O)c(=O)n(Cc3ccccc3Cl)n2)ccc1F | 142 to 143 °C
Cc1oc(-c2ccccc2)nc1C(=O)CBr | 88 to 89 °C
ClC1=Nc2ccccc2Sc2ccccc21 | 93 to 97 °C

Other lines, results leading:

melting point | Structure (SMILES)
94 to 95 °C | O=C/C=C/c1cccc(Cl)c1Cl
149 °C | CC1(C)NC(=O)N(c2ccc([N+](=O)[O-])c(C(F)(F)F)c2)C1=O
184 to 186 °C | CC(=O)NC[C@H]1CN(c2ccc(N3CCC(O)(CN4CCOCC4)CC3)c(F)c2)C(=O)O1
141 to 142 °C | CC(C)Cc1nn(C)c(=O)c2c(SCCCO)n(Cc3cccc4ccccc34)nc12
> 290 °C | O=C(O)c1cccc2ncc(-c3ccccc3)cc12
141 to 142 °C | CC(=O)Oc1c(C)nc(N)nc1C(C)C
75 to 77 °C | CC(C)(C)c1ncncc1C(=O)c1ccc(Cl)cc1
244 to 245 °C | O=[N+]([O-])c1cc2c(c([N+](=O)[O-])c1)NCC2
110 °C | CC(C)Oc1ccc(C=O)cc1OCCN1C(=O)c2ccccc2C1=O
> 300 °C | O=CN1CCN(c2ncc3c(=O)c(C(=O)ON4C(=O)CCC4=O)c[nH]c3n2)CC1
83 to 85 °C | N#Cc1cnn(-c2ccc(Cl)cc2Cl)c1C(F)(F)F
163 °C | Cn1cc(-c2cc(-c3cnc4[nH]ccc4c3)ccn2)n(-c2ccc(N3CCNCC3)c(C(F)(F)F)c2)c1=O
187 to 188 °C | COc1ccc(-c2nc3ccccc3n3cncc23)cc1
236 to 239 °C | Oc1nccc2cccnc12
78 to 80 °C | CCOc1c(NC(C)(C)CC)c(=O)c1=O
219 °C | COc1ccc2cc(-c3ccc(-n4nc(C)nc4C)c(Cl)c3)c(=O)oc2c1
68 to 71 °C | CCOC(=O)c1c(CC)ncnc1NCCc1ccc(CCO)cc1
190 to 191 °C | CCC(=O)N(C)c1cccc(-c2ccc3nnc(N)n3n2)c1
120 to 121 °C | NN(c1ccccc1)C1CCS(=O)(=O)C1 (stereo unspecified)
154 to 156 °C | CC1(C)CCC2=C(O1)c1ccccc1C(=O)C2=O
80 to 82 °C | Oc1ccc(OCc2ccccc2)c(F)c1
80 to 82 °C | O=C(O)C(Cc1ccc(C(F)(F)F)cc1Br)C(=O)O
103 to 108 °C | CC(=O)Nc1ccc(/C=C\COCCCCCCNCC(O)c2ccc(O)c(CO)c2)cc1 (stereo unspecified)
